Results taken from ChEMBL document CHEMBL5357036, “Latest developments in coumarin-based anticancer agents: mechanism of action and structure-activity relationship studies” (RSC Med Chem, 2024).

System: HT-29
Assay: Cytotoxicity against human HT-29 cells assessed as reduction in cell viability by MTT assay
Type: functional, cell-based
Conditions: not given

Compound	IC50 [nM]
Cc1c(Cl)c(=O)oc2cc(OCCn3cc(CO[C@H]4O[C@@H]5O[C@@]6(C)CC[C@H]7[C@H](C)CC[C@@H]([C@H]4C)[C@@]57OO6)nn3)ccc12	50
Cc1c(C)c2ccc(OCCn3cc(CO[C@H]4O[C@@H]5O[C@@]6(C)CC[C@H]7[C@H](C)CC[C@@H]([C@H]4C)[C@@]57OO6)nn3)cc2oc1=O	50
CCOC(=O)c1cc2ccc(OCCn3cc(CO[C@H]4O[C@@H]5O[C@@]6(C)CC[C@H]7[C@H](C)CC[C@@H]([C@H]4C)[C@@]57OO6)nn3)cc2oc1=O	50
C[C@H]1[C@@H](OCc2cn(CCOc3ccc4c(C(F)(F)F)cc(=O)oc4c3)nn2)O[C@@H]2O[C@@]3(C)CC[C@H]4[C@H](C)CC[C@@H]1[C@@]24OO3	50
CCOC(=O)c1cc2ccc(OCCCn3cc(CO[C@H]4O[C@@H]5O[C@@]6(C)CC[C@H]7[C@H](C)CC[C@@H]([C@H]4C)[C@@]57OO6)nn3)cc2oc1=O	1220
Cc1c(Cl)c(=O)oc2cc(OCCCn3cc(CO[C@H]4O[C@@H]5O[C@@]6(C)CC[C@H]7[C@H](C)CC[C@@H]([C@H]4C)[C@@]57OO6)nn3)ccc12	1220
Cc1cc(=O)oc2cc(OCCn3cc(CO[C@H]4O[C@@H]5O[C@@]6(C)CC[C@H]7[C@H](C)CC[C@@H]([C@H]4C)[C@@]57OO6)nn3)ccc12	50
Cc1cc(=O)oc2cc(OCCCn3cc(CO[C@H]4O[C@@H]5O[C@@]6(C)CC[C@H]7[C@H](C)CC[C@@H]([C@H]4C)[C@@]57OO6)nn3)ccc12	1220
Cc1c(C)c2ccc(OCCCn3cc(CO[C@H]4O[C@@H]5O[C@@]6(C)CC[C@H]7[C@H](C)CC[C@@H]([C@H]4C)[C@@]57OO6)nn3)cc2oc1=O	1220
C[C@H]1[C@@H](OCc2cn(CCCOc3ccc4c(C(F)(F)F)cc(=O)oc4c3)nn2)O[C@@H]2O[C@@]3(C)CC[C@H]4[C@H](C)CC[C@@H]1[C@@]24OO3	1220
C[C@H]1[C@@H](OCCCc2cn(COc3ccc4c(C(F)(F)F)cc(=O)oc4c3)nn2)O[C@@H]2O[C@@]3(C)CC[C@H]4[C@H](C)CC[C@@H]1[C@@]24OO3	> 100000
CCOC(=O)c1cc2ccc(OCn3cc(CCCO[C@H]4O[C@@H]5O[C@@]6(C)CC[C@H]7[C@H](C)CC[C@@H]([C@H]4C)[C@@]57OO6)nn3)cc2oc1=O	> 100000
Cc1c(Cl)c(=O)oc2cc(OCn3cc(CCCO[C@H]4O[C@@H]5O[C@@]6(C)CC[C@H]7[C@H](C)CC[C@@H]([C@H]4C)[C@@]57OO6)nn3)ccc12	> 100000
Cc1cc(=O)oc2cc(OCn3cc(CCCO[C@H]4O[C@@H]5O[C@@]6(C)CC[C@H]7[C@H](C)CC[C@@H]([C@H]4C)[C@@]57OO6)nn3)ccc12	> 100000
Cc1c(C)c2ccc(OCn3cc(CCO[C@H]4O[C@@H]5O[C@@]6(C)CC[C@H]7[C@H](C)CC[C@@H]([C@H]4C)[C@@]57OO6)nn3)cc2oc1=O	2460
CCOC(=O)c1cc2ccc(OCn3cc(CCO[C@H]4O[C@@H]5O[C@@]6(C)CC[C@H]7[C@H](C)CC[C@@H]([C@H]4C)[C@@]57OO6)nn3)cc2oc1=O	2460
Cc1cc(=O)oc2cc(OCn3cc(CCO[C@H]4O[C@@H]5O[C@@]6(C)CC[C@H]7[C@H](C)CC[C@@H]([C@H]4C)[C@@]57OO6)nn3)ccc12	2460
Cc1c(C)c2ccc(OCn3cc(CCCO[C@H]4O[C@@H]5O[C@@]6(C)CC[C@H]7[C@H](C)CC[C@@H]([C@H]4C)[C@@]57OO6)nn3)cc2oc1=O	> 100000
Cc1c(Cl)c(=O)oc2cc(OCn3cc(CCO[C@H]4O[C@@H]5O[C@@]6(C)CC[C@H]7[C@H](C)CC[C@@H]([C@H]4C)[C@@]57OO6)nn3)ccc12	2460
C[C@H]1[C@@H](OCCc2cn(COc3ccc4c(C(F)(F)F)cc(=O)oc4c3)nn2)O[C@@H]2O[C@@]3(C)CC[C@H]4[C@H](C)CC[C@@H]1[C@@]24OO3	2460

System: HCT-116
Assay: Cytotoxicity against human HCT-116 cells assessed as reduction in cell viability incubated for 96 hrs by MTT assay
Type: functional, cell-based
Conditions: HCT-116, 96 h

Compound	IC50 [nM]
Cc1cccc2c(OCn3cc(CCO[C@H]4O[C@@H]5O[C@@]6(C)CC[C@H]7[C@H](C)CC[C@@H]([C@H]4C)[C@@]57OO6)nn3)cc(=O)oc12	> 100000
Cc1ccc2oc(=O)cc(OCn3cc(CCCO[C@H]4O[C@@H]5O[C@@]6(C)CC[C@H]7[C@H](C)CC[C@@H]([C@H]4C)[C@@]57OO6)nn3)c2c1	39
C[C@H]1[C@@H](OCCc2cn(COc3cc(=O)oc4ccccc34)nn2)O[C@@H]2O[C@@]3(C)CC[C@H]4[C@H](C)CC[C@@H]1[C@@]24OO3	> 100000
Cc1cccc2c(OCn3cc(CCCO[C@H]4O[C@@H]5O[C@@]6(C)CC[C@H]7[C@H](C)CC[C@@H]([C@H]4C)[C@@]57OO6)nn3)cc(=O)oc12	39
Cc1ccc2c(OCn3cc(CCCO[C@H]4O[C@@H]5O[C@@]6(C)CC[C@H]7[C@H](C)CC[C@@H]([C@H]4C)[C@@]57OO6)nn3)cc(=O)oc2c1C	39
Cc1ccc2c(OCn3cc(CCO[C@H]4O[C@@H]5O[C@@]6(C)CC[C@H]7[C@H](C)CC[C@@H]([C@H]4C)[C@@]57OO6)nn3)cc(=O)oc2c1C	> 100000
C[C@H]1[C@@H](OCCCc2cn(COc3cc(=O)oc4ccccc34)nn2)O[C@@H]2O[C@@]3(C)CC[C@H]4[C@H](C)CC[C@@H]1[C@@]24OO3	39
Cc1cc(C)c2c(OCn3cc(CCO[C@H]4O[C@@H]5O[C@@]6(C)CC[C@H]7[C@H](C)CC[C@@H]([C@H]4C)[C@@]57OO6)nn3)cc(=O)oc2c1	> 100000
Cc1cc(C)c2oc(=O)cc(OCn3cc(CCCO[C@H]4O[C@@H]5O[C@@]6(C)CC[C@H]7[C@H](C)CC[C@@H]([C@H]4C)[C@@]57OO6)nn3)c2c1	39
Cc1cc(C)c2oc(=O)cc(OCn3cc(CCO[C@H]4O[C@@H]5O[C@@]6(C)CC[C@H]7[C@H](C)CC[C@@H]([C@H]4C)[C@@]57OO6)nn3)c2c1	> 100000
Cc1cc(C)c2c(OCn3cc(CCCO[C@H]4O[C@@H]5O[C@@]6(C)CC[C@H]7[C@H](C)CC[C@@H]([C@H]4C)[C@@]57OO6)nn3)cc(=O)oc2c1	39
Cc1ccc2c(OCn3cc(CCCO[C@H]4O[C@@H]5O[C@@]6(C)CC[C@H]7[C@H](C)CC[C@@H]([C@H]4C)[C@@]57OO6)nn3)cc(=O)oc2c1	39

System: HT-29
Assay: Cytotoxicity against human HT-29 cells assessed as reduction in cell viability incubated for 48 hrs by SRB assay
Type: functional, cell-based
Conditions: HT-29, 48 h

Compound	IC50 [nM]
Cc1cc(=O)oc2cc(Nc3nc(-c4ccc(Br)cc4)cs3)ccc12	250

System: MDA-MB-231
Assay: Antiproliferative activity against human MDA-MB-231 cells assessed as cell growth inhibition incubated for 96 hrs by MTT assay
Type: functional, cell-based
Conditions: MDA-MB-231, 96 h

Compound	IC50 [nM]
Cc1ccc2oc(=O)cc(OCn3cc(CCCO[C@H]4O[C@@H]5O[C@@]6(C)CC[C@H]7[C@H](C)CC[C@@H]([C@H]4C)[C@@]57OO6)nn3)c2c1	39
Cc1cccc2c(OCn3cc(CCCO[C@H]4O[C@@H]5O[C@@]6(C)CC[C@H]7[C@H](C)CC[C@@H]([C@H]4C)[C@@]57OO6)nn3)cc(=O)oc12	39
Cc1ccc2c(OCn3cc(CCCO[C@H]4O[C@@H]5O[C@@]6(C)CC[C@H]7[C@H](C)CC[C@@H]([C@H]4C)[C@@]57OO6)nn3)cc(=O)oc2c1C	39
C[C@H]1[C@@H](OCCCc2cn(COc3cc(=O)oc4ccccc34)nn2)O[C@@H]2O[C@@]3(C)CC[C@H]4[C@H](C)CC[C@@H]1[C@@]24OO3	39
Cc1cc(C)c2oc(=O)cc(OCn3cc(CCCO[C@H]4O[C@@H]5O[C@@]6(C)CC[C@H]7[C@H](C)CC[C@@H]([C@H]4C)[C@@]57OO6)nn3)c2c1	39
Cc1cc(C)c2c(OCn3cc(CCCO[C@H]4O[C@@H]5O[C@@]6(C)CC[C@H]7[C@H](C)CC[C@@H]([C@H]4C)[C@@]57OO6)nn3)cc(=O)oc2c1	39
Cc1ccc2c(OCn3cc(CCCO[C@H]4O[C@@H]5O[C@@]6(C)CC[C@H]7[C@H](C)CC[C@@H]([C@H]4C)[C@@]57OO6)nn3)cc(=O)oc2c1	39

System: MDA-MB-231
Assay: Cytotoxicity against human MDA-MB-231 cells assessed as cell growth inhibition measured after 48 hrs by SRB assay
Type: functional, cell-based
Conditions: MDA-MB-231, 48 h

Compound	IC50 [nM]
Cc1ccc2c(Cn3cc(CO[C@H]4O[C@@H]5O[C@@]6(C)CC[C@H]7[C@H](C)CC[C@@H]([C@H]4C)[C@@]57OO6)nn3)cc(=O)oc2c1	> 100000
Cc1cc(C)c2c(Cn3cc(CO[C@H]4O[C@@H]5O[C@@]6(C)CC[C@H]7[C@H](C)CC[C@@H]([C@H]4C)[C@@]57OO6)nn3)cc(=O)oc2c1	> 100000
C[C@H]1[C@@H](OCc2cn(Cc3cc(=O)oc4cc(O)ccc34)nn2)O[C@@H]2O[C@@]3(C)CC[C@H]4[C@H](C)CC[C@@H]1[C@@]24OO3	> 100000
Cc1ccc2oc(=O)cc(Cn3cc(CO[C@H]4O[C@@H]5O[C@@]6(C)CC[C@H]7[C@H](C)CC[C@@H]([C@H]4C)[C@@]57OO6)nn3)c2c1	> 100000
C[C@H]1[C@@H](OCCc2cn(Cc3cc(=O)oc4cc(O)ccc34)nn2)O[C@@H]2O[C@@]3(C)CC[C@H]4[C@H](C)CC[C@@H]1[C@@]24OO3	> 100000
Cc1ccc2c(Cn3cc(CCO[C@H]4O[C@@H]5O[C@@]6(C)CC[C@H]7[C@H](C)CC[C@@H]([C@H]4C)[C@@]57OO6)nn3)cc(=O)oc2c1	> 100000
Cc1ccc2oc(=O)cc(Cn3cc(CCO[C@H]4O[C@@H]5O[C@@]6(C)CC[C@H]7[C@H](C)CC[C@@H]([C@H]4C)[C@@]57OO6)nn3)c2c1	> 100000
Cc1cc(C)c2c(Cn3cc(CCO[C@H]4O[C@@H]5O[C@@]6(C)CC[C@H]7[C@H](C)CC[C@@H]([C@H]4C)[C@@]57OO6)nn3)cc(=O)oc2c1	> 100000

System: HCT-116
Assay: Cytotoxicity against human HCT-116 cells assessed as reduction in cell viability incubated for 48 hrs by SRB assay
Type: functional, cell-based
Conditions: HCT-116, 48 h

Compound	IC50 [nM]
Cc1cc(=O)oc2cc(Nc3nc(-c4ccc(Br)cc4)cs3)ccc12	250

System: MCF7
Assay: cells
Conditions: Homo sapiens, MCF7, 48 h
Description: Anticancer activity against human MCF7 cells assessed as inhibition of cell growth incubated for 48 hrs by SRB assay

Compound	IC50 [nM]
Cc1ccc(/N=N/c2sc(N3N=C(c4c(O)c5ccccc5oc4=O)CC3c3ccc(N(C)C)cc3)nc2-c2ccccc2)cc1 (centres undefined)	5410
CN(C)c1ccc(C2CC(c3cc4ccccc4oc3=O)=NN2c2nc(-c3ccccc3)c(/N=N/c3ccc(Cl)cc3)s2)cc1 (centres undefined)	5410
CN(C)c1ccc(C2CC(c3c(O)c4ccccc4oc3=O)=NN2c2nc(-c3ccccc3)c(/N=N/c3ccc(Cl)cc3)s2)cc1 (centres undefined)	5410
CC1SC(N2N=C(c3cc4ccccc4oc3=O)CC2c2ccc(N(C)C)cc2)=NC1=O (centres undefined)	5410
Cc1nc(N2N=C(c3cc4ccccc4oc3=O)CC2c2ccc(N(C)C)cc2)sc1/N=N/c1ccc(Cl)cc1 (centres undefined)	5410
